Values after ≈ are worked out from the molar mass of the structure shown. Read-outs that look alike come from different tables or passages of the source.
Columns and labels:
[1] = biological target: FosA3 T9A (Escherichia coli, UniProt D7UQM0, T9A); test: Tryptophan fluorescence binding studies
[2] = biological target: FosA^KP (chromosomal K. pneumoniae FosA) (Klebsiella pneumoniae, UniProt W8UNW6); test: Isothermal titration calorimetry; assay type: binding
[3] = biological target: FosA3 S36A (Escherichia coli, UniProt D7UQM0, S36A); test: Tryptophan fluorescence binding studies
[4] = biological target: FosA3 W46A (Escherichia coli, UniProt D7UQM0, W46A); test: biochemical
[5] = system: fosfomycin-resistant Escherichia coli strain containing a deletion in the uhpT gene; test: Growth curves of FosA-non-producing uhpT deletion strain; assay type: cell-based; conditions: absence and presence of 32 μg/mL fosfomycin; strain without FosA gene
Description: (§1) An overnight culture of each antibiotic-resistant bacterium was grown in Mueller-Hinton Broth at 37° C., 150 rpm. The following day, the culture was diluted such that its OD600 was 0.2. The diluted culture was allowed to grow at 37° C. for 1 h. Following this, the culture was diluted such that its OD600 was 0.1. In a 96-well, round-bottom plate, three groups were set-up. […] Group three contained 10 two-fold dilutions of fosfomycin (0-1024 μg/mL). All groups contained 25% volume of the […] and 25 μg/mL glucose-6-phosphate. The plate was incubated at 37° C. for up to […]. The OD600 was assessed every […]. Data was analyzed in PRISM software or SigmaPlot® software (Systat Software Inc., San Jose, Calif.). The initial OD600 subtracted as background, and fit with a logistic growth curve.
FIGS. 8A-8B show the growth curves of a fosfomycin-resistant Escherichia coli strain containing a deletion in the uhpT gene. […] Fosfomycin resistance is conferred by decreased transport of the antibiotic across the bacterial cell wall.

[6] = system: FosA3-producing E. coli YD472; test: Growth curve analysis, FOM dose response with or without ANY1; assay type: cell-based; conditions: 112 μg/mL ANY1; P=0.04
[7] = biological target: FosA3 Y131A (Escherichia coli, UniProt D7UQM0, Y131A); test: Tryptophan fluorescence binding studies
[8] = system: KPC-producing clinical strain S. marcescens YDC760-2; test: Growth curve analysis, FOM dose response with or without ANY1; assay type: cell-based; conditions: 112 μg/mL ANY1; P<0.05
[9] = system: KPC-producing clinical strain E. cloacae YDC612; test: as above; assay type: cell-based; conditions: 112 μg/mL ANY1; P<0.05
[10] = biological target: FosA3 Y65F (Escherichia coli, UniProt D7UQM0, Y65F); test: Tryptophan fluorescence binding studies
[11] = biological target: FosA3 Y39F (Escherichia coli, UniProt D7UQM0, Y39F); test: Tryptophan fluorescence binding studies
[12] = biological target: FosA3 R96A (Escherichia coli, UniProt D7UQM0, R96A); test: Tryptophan fluorescence binding studies
[13] = biological target: FosA3 WT (Escherichia coli, UniProt D7UQM0); test: Tryptophan fluorescence binding studies
[14] = system: K. pneumoniae I1; test: Time-kill experiments; assay type: cell-based; conditions: FOM with ANY1
[15] = system: carbapenemase (KPC)-producing K. pneumoniae clinical strain I1; test: Bacterial growth curve analysis (Gompertz model); assay type: cell-based; conditions: for IC50: Klebsiella pneumoniae, read-out: IC50 for FOM (concentration decreasing maximum growth by 50%)
Description: Briefly, an overnight culture of K. pneumoniae I1 was diluted in Mueller-Hinton broth in a 96-well plate, incubated at 37° C. (150 rpm), and OD600 was assessed every 30 min.
The growth curves were modeled using a modified 3-parameter Gompertz equation (Zwietering et al., Appl Environ Microbiol 1990, 56(6)1875-81), which facilitated quantification of the lag time (min), growth rate (OD units/min) and maximum growth (OD units). […] The maximum growth value was determined from the curves in FIGS. 12A-12C using a 3-parameter Gompertz equation.

[16] = system: HK2 cells; test: CellTiter-Glo luminescent cell viability assay; assay type: cell-based, human; conditions: 0-224 μg/mL ANY1; data not shown
Description: (§2) In all cases, cell viability was assessed using the CellTiter-Glo® luminescent cell viability assay.

[17] = biological target: FosA3 Y131F (Escherichia coli, UniProt D7UQM0, Y131F); test: Tryptophan fluorescence binding studies
[18] = system: fosfomycin-resistant, FosA-producing Klebsiella pneumoniae; test: Growth inhibition of fosfomycin-resistant FosA-producing bacteria; assay type: cell-based; conditions: with 32 μg/mL fosfomycin; K. pneumoniae
Description: (§3) Each bacterial strain is resistant to fosfomycin and caries the species-specific fosfomycin-modifying gene encoding FosA.
as §1

[19] = system: fosfomycin-resistant, FosA-producing Pseudomonas aeruginosa; test: as above; assay type: cell-based; conditions: with 32 μg/mL fosfomycin; P. aeruginosa
Description: as §3, §1

[20] = system: fosfomycin-resistant, FosA-producing Enterobacter cloacae; test: as above; assay type: cell-based; conditions: with 32 μg/mL fosfomycin; E. cloacae
Description: as §3, §1

[21] = system: fosfomycin-resistant, FosA-producing Escherichia coli; test: as above; assay type: cell-based; conditions: with 32 μg/mL fosfomycin; E. coli
Description: as §3, §1

[22] = biological target: FosA (Klebsiella pneumoniae, UniProt W8UNW6); test: Steady-state kinetics of ANY1 inhibition of FosA activity; assay type: biochemical; conditions: for Vmax: 0-50 mM fosfomycin
Description: Assays were carried out in a volume of 50 μl at 25° C. in 0.1 M sodium phosphate buffer (pH 8.0) containing 50 mM KCl, 25 μM MnCl2, 30 mM glutathione, and 0-50 mM fosfomycin. A 100 nM concentration of FosA was used to initiate the reaction, which was quenched after 20 minutes for FosA. Reactions were quenched by the addition of 150 μl methanol. Quenched reactions were diluted in 100 μl of 0.1 M sodium phosphate buffer (pH 8.0) containing 1 mM EDTA. Following the addition of 500 μM monochlorobimane, the concentration of glutathione was established by fluorescence spectroscopy using a SpectraMax M2 plate reader (Molecular Devices). A standard curve was prepared using 0 to 750 μM glutathione. Data were fitted to Michaelis Menten equations using SigmaPlot (Systat Software Inc., San Jose, Calif.).

[23] = biological target: E. coli MurA (Escherichia coli, UniProt P0A749); test: Isothermal titration calorimetry; assay type: binding; conditions: data not shown
[24] = biological target: FosA3 W34A (Escherichia coli, UniProt D7UQM0, W34A); test: biochemical
[25] = system: OK cells; test: CellTiter-Glo luminescent cell viability assay; assay type: cell-based, marsupial; conditions: 0-224 μg/mL ANY1; data not shown
Description: as §2

[26] = system: human peripheral blood mononuclear cells; test: CellTiter-Glo luminescent cell viability assay; assay type: cell-based; conditions: 0-224 μg/mL ANY1; data not shown
Description: as §2

[27] = biological target: FosA^KP (K. pneumoniae chromosomal FosA) (Klebsiella pneumoniae, UniProt W8UNW6); test: FosA screening assay (monochlorobimane fluorescence, glutathione consumption); assay type: biochemical
[28] = system: FosB enzyme from Gram-positive pathogens; test: Isothermal titration calorimetry; assay type: binding; conditions: data not shown
[29] = system: ESBL- and carbapenemase-producing Klebsiella pneumoniae; conditions: ESBL- and carbapenemase-producing K. pneumoniae; cited from earlier work
[30] = system: chromosomal FosA genes expressed in E. coli; conditions: cited from earlier work

O=c1[nH]n2cc(-c3n[nH]c(-c4cnc5c(Br)c(=O)[nH]n5c4)c3[N+](=O)[O-])cnc2c1Br [ANY1, 3-bromo-6-[3-(3-bromo-2-oxo-1H-pyrazolo[1,5-a]pyrimidin-6-yl)-4-nitro-1H-pyrazol-5-yl]-1H-pyrazolo[1,5-a]pyrimidin-2-one]
Kd [1]: 1580 ± 97.6 nM | Kd [2]: 180 ± 30 nM | Kd [3]: 1360 ± 132 nM | Kd [4]: 2470 ± 111 nM | Inhibition of bacterial growth [5]: did not inhibit the bacterial growth | Decrease of the IC50 for FOM by ANY1 [6]: 1.8 fold | Kd [7]: 4880 ± 770 nM | Decrease of the IC50 for FOM by ANY1 [8]: > 100 fold | Decrease of the IC50 for FOM by ANY1 [9]: 23 fold | Kd [10]: 784 ± 74.7 nM | Kd [11]: 868 ± 201 nM | Kd [12]: 541 ± 90.1 nM | Kd [13]: 441 ± 50.1 nM | Effect of ANY1 on FOM activity in time-kill [14]: significantly increased FOM activity | Reduction of FOM IC50 by ANY1 ([15]; 112 μg/mL ANY1, P<0.05): ~6 fold | Bacterial growth when FOM was combined with ANY1 ([15]; FOM 32, 64, 128 μg/mL with ANY1 14-224 μg/mL, dose dependent): significantly attenuated | Effect of ANY1 alone on growth ([15]; absence of FOM): no effect | Effect of ANY1 on the activity of gentamicin ([15]; gentamicin ± ANY1 dose-response): did not alter the activity of gentamicin | Increase in FOM activity (maximum growth) ([15]; highest ANY1 concentration tested): ~6 fold | Impact on cell viability [16]: no impact on cell viability | Kd [17]: 551 ± 28 nM | Inhibition of FosA in the strain, reversing fosfomycin resistance (growth curves) [18]: effectively inhibited FosA | Inhibition of FosA in the strain, reversing fosfomycin resistance (growth curves) [19]: effectively inhibited FosA | Inhibition of FosA in the strain, reversing fosfomycin resistance (growth curves) [20]: effectively inhibited FosA | Inhibition of FosA in the strain, reversing fosfomycin resistance (growth curves) [21]: effectively inhibited FosA | Vmax ([22]; 5 μM ANY1): 118.2 | Vmax ([22]; 10 μM ANY1): 107 | Vmax ([22]; 20 μM ANY1): 154.6 | Mode of inhibition with respect to glutathione ([22]; data not shown): non-competitive inhibitor | Mode of inhibition with respect to fosfomycin binding to FosA ([22]; varying fosfomycin, 0-20 μM ANY1): competitive inhibitor | Binding to E. coli MurA [23]: did not bind | Kd [24]: 2620 ± 205 nM | Impact on cell viability [25]: no impact on cell viability | Impact on cell viability [26]: no impact on cell viability | IC50 [27]: 5000 nM | Binding to FosB [28]: did not bind

C[C@@H]1O[C@@H]1P(=O)(O)O [FOM, Fosfomycin]
IC50 ([15]; absence of ANY1): 144 ± 16.5 µg/mL (≈ 1.04 mM) | IC50 ([15]; presence of ANY1 (112 μg/mL)): 23.2 ± 4.3 µg/mL | MIC50 [29]: ~32 µg/mL (≈ 0.232 mM) | MIC90 [29]: ~128 µg/mL (≈ 0.927 mM) | MIC ([30]; FosA of Enterobacter aerogenes): >1024 µg/mL | MIC ([30]; FosA of Enterobacter cloacae): >1024 µg/mL | MIC ([30]; FosA of Klebsiella oxytoca): >1024 µg/mL | MIC ([30]; FosA of Klebsiella pneumoniae): >1024 µg/mL | MIC ([30]; FosA of Morganella morganii): >1024 µg/mL | MIC ([30]; FosA of Proteus mirabilis): 9.8 µg/mL (≈ 0.071 mM) | MIC ([30]; FosA of Providencia rettgeri): >1024 µg/mL | MIC ([30]; FosA of Providencia stuartii): >1024 µg/mL | MIC ([30]; FosA of Pseudomonas aeruginosa): 16 µg/mL (≈ 0.116 mM) | MIC ([30]; FosA of Serratia marcescens): >1024 µg/mL
